Experiments:
BT-549 [1] = assay: NCI-60 single-dose screen; format: cell-based, human; conditions: BT-549, 10^–5 M
Source text: (§1) In the next step, all synthesized compounds were electronically submitted and accepted for testing to the National Cancer Institute (NCI) platform, for the single dose (10^−5 M) screening against a panel of 60 human tumor cell lines, representing leukemia, melanoma, and cancers of the lung, colon, central nervous system, ovary, kidney, prostate, and breast. The results are summarized in Table 2, with the best values highlighted in red (Figures S1–S14).

EKVX = assay: NCI-60 single-dose screen; format: cell-based, human; conditions: Homo sapiens, 10^–5 M, read-out: GI (%)
Source text: as §1

HOP-62 [2] = assay: NCI-60 single-dose screen; format: cell-based, human; conditions: HOP-62, 10^–5 M
Source text: as §1

MDA-MB-468 = assay: NCI-60 single-dose screen; format: cell-based, human; conditions: MDA-MB-468, 10^–5 M
Source text: as §1

NCI-H226 = assay: NCI-60 single-dose screen; format: cell-based, human; conditions: NCI-H226, 10^–5 M; for inhibition at 10 µM: Homo sapiens, read-out: GI (%)
Source text: as §1

SF-295 = assay: NCI-60 single-dose screen; format: cell-based, human; conditions: SF-295, 10^–5 M
Source text: as §1

U251 = assay: NCI-60 single-dose screen; format: cell-based, human; conditions: U251, 10^–5 M
Source text: as §1

UO-31 = assay: NCI-60 single-dose screen; format: cell-based, human; conditions: UO-31, 10^–5 M
Source text: as §1

A549/ATCC = assay: NCI-60 single-dose screen; format: cell-based; conditions: Homo sapiens, 10^–5 M, read-out: GI (%)
In short: (§2)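 Values come from a one-concentration NCI screen in which compounds at 10^−5 M were tested on sixty human tumor cell lines.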

ACHN = assay: NCI-60 single-dose screen; format: cell-based; conditions: Homo sapiens, 10^–5 M, read-out: GI (%)
In short: as §2

HCT-116 [3] = assay: NCI-60 single-dose screen; format: cell-based; conditions: Homo sapiens; HCT-116, 10^–5 M; read-out: GI (%)
In short: as §2

HS 578T = assay: NCI-60 single-dose screen; format: cell-based; conditions: Homo sapiens, 10^–5 M, read-out: GI (%)
In short: as §2

MCF7 = assay: NCI-60 single-dose screen; format: cell-based; conditions: Homo sapiens; MCF7, 10^–5 M; read-out: GI (%)
In short: as §2

MDA-MB-435 = assay: NCI-60 single-dose screen; format: cell-based; conditions: Homo sapiens; MDA-MB-435, 10^–5 M; read-out: GI (%)
In short: as §2

MOLT-4 [4] = assay: NCI-60 single-dose screen; format: cell-based; conditions: Homo sapiens; MOLT-4, 10^–5 M; read-out: GI (%)
In short: as §2

NCI/ADR-RES = assay: NCI-60 single-dose screen; format: cell-based; conditions: Homo sapiens, 10^–5 M, read-out: GI (%)
In short: as §2

OVCAR-5 = assay: NCI-60 single-dose screen; format: cell-based; conditions: Homo sapiens; OVCAR-5, 10^–5 M; read-out: GI (%)
In short: as §2

SK-MEL-28 = assay: NCI-60 single-dose screen; format: cell-based; conditions: Homo sapiens; SK-MEL-28, 10^–5 M; read-out: GI (%)
In short: as §2

SN12C = assay: NCI-60 single-dose screen; format: cell-based; conditions: Homo sapiens, 10^–5 M, read-out: GI (%)
In short: as §2

SNB-19 = assay: NCI-60 single-dose screen; format: cell-based; conditions: Homo sapiens; SNB-19, 10^–5 M; read-out: GI (%)
In short: as §2

T-47D [5] = assay: NCI-60 single-dose screen; format: cell-based; conditions: Homo sapiens, T47D, 10^–5 M, read-out: GI (%)
In short: as §2

UACC-62 = assay: NCI-60 single-dose screen; format: cell-based; conditions: Homo sapiens; UACC-62, 10^–5 M; read-out: GI (%)
In short: as §2

CCRF-CEM = assay: NCI-60 5-dose screen; format: cell-based; conditions: Homo sapiens; for CC50: read-out: LC50 (the source's name)
MOLT-4 [6] = assay: NCI-60 5-dose screen; format: cell-based, human; conditions: for GI50 / CC50: Homo sapiens; for CC50: read-out: LC50 (the source's name)
RPMI-8226 = assay: NCI-60 5-dose screen; format: cell-based, human; conditions: for GI50 / CC50: Homo sapiens; for CC50: read-out: LC50 (the source's name)
HOP-62 [7] = assay: NCI-60 5-dose screen; format: cell-based, human; conditions: for GI50 / CC50: Homo sapiens; for CC50: read-out: LC50 (the source's name)
KM12 = assay: NCI-60 5-dose screen; format: cell-based, human; conditions: for GI50 / CC50: Homo sapiens; for CC50: read-out: LC50 (the source's name)
HCT-116 [8] = assay: NCI-60 5-dose screen; format: cell-based, human; conditions: for GI50 / CC50: Homo sapiens; for CC50: read-out: LC50 (the source's name)
COLO 205 = assay: NCI-60 5-dose screen; format: cell-based, human; conditions: for GI50 / CC50: Homo sapiens; for CC50: read-out: LC50 (the source's name)
SK-MEL-2 = assay: NCI-60 5-dose screen; format: cell-based, human; conditions: for GI50 / CC50: Homo sapiens; for CC50: read-out: LC50 (the source's name)
LOX IMVI = assay: NCI-60 5-dose screen; format: cell-based, human; conditions: for GI50 / CC50: Homo sapiens; for CC50: read-out: LC50 (the source's name)
A498 = assay: NCI-60 5-dose screen; format: cell-based, human; conditions: for GI50 / CC50: Homo sapiens; for CC50: read-out: LC50 (the source's name)
RXF 393 = assay: NCI-60 5-dose screen; format: cell-based, human; conditions: for GI50 / CC50: Homo sapiens; for CC50: read-out: LC50 (the source's name)
TK-10 = assay: NCI-60 5-dose screen; format: cell-based, human; conditions: for GI50 / CC50: Homo sapiens; for CC50: read-out: LC50 (the source's name)
MDA-MB-231/ATCC = assay: NCI-60 5-dose screen; format: cell-based, human; conditions: for GI50 / CC50: Homo sapiens; for CC50: read-out: LC50 (the source's name)
BT-549 [9] = assay: NCI-60 5-dose screen; format: cell-based, human; conditions: for GI50 / CC50: Homo sapiens; for CC50: read-out: LC50 (the source's name)
T-47D [10] = assay: NCI-60 5-dose screen; format: cell-based, human; conditions: for GI50 / CC50: Homo sapiens, T47D; for CC50: read-out: LC50 (the source's name)

O=C1C(Nc2ccc(I)cc2)=CC(c2ccc(O)c(O)c2)N1c1ccc(I)cc1 (stereo not shown) [3h]
GI (%) (BT-549 [1]): 81%
inhibition at 10 µM (EKVX): 22%
GI (%) (HOP-62 [2]): 82%
GI (%) (MDA-MB-468): 100 ^h1%
inhibition at 10 µM (NCI-H226): 35%
GI (%) (SF-295): 56%
GI (%) (U251): 58%
GI (%) (UO-31): 54%
inhibition at 10 µM (A549/ATCC): 73%
inhibition at 10 µM (ACHN): 61%
inhibition at 10 µM (HCT-116 [3]): 96%
inhibition at 10 µM (HS 578T): 63%
inhibition at 10 µM (MCF7): 91%
inhibition at 10 µM (MDA-MB-435): 73%
inhibition at 10 µM (MOLT-4 [4]): 100%
inhibition at 10 µM (NCI/ADR-RES): 35%
inhibition at 10 µM (OVCAR-5): 22%
inhibition at 10 µM (SK-MEL-28): 75%
inhibition at 10 µM (SN12C): 100%
inhibition at 10 µM (SNB-19): 69%
inhibition at 10 µM (T-47D [5]): 65%
inhibition at 10 µM (UACC-62): 62%
GI50 (CCRF-CEM): 3.09 µM
CC50 (CCRF-CEM): 3.61 µM
TGI (MOLT-4 [6]): 4.17 µM
GI50 (MOLT-4 [6]): 2.08 µM
CC50 (MOLT-4 [6]): 8.35 µM
TGI (RPMI-8226): 6.01 µM
GI50 (RPMI-8226): 2.4 µM
CC50 (RPMI-8226): > 100 µM
TGI (HOP-62 [7]): >100 µM
GI50 (HOP-62 [7]): > 100 µM
CC50 (HOP-62 [7]): > 100 µM
TGI (KM12): >100 µM
GI50 (KM12): 5.22 µM
CC50 (KM12): > 100 µM
TGI (HCT-116 [8]): >100 µM
GI50 (HCT-116 [8]): 7.43 µM
CC50 (HCT-116 [8]): > 100 µM
TGI (COLO 205): >100 µM
GI50 (COLO 205): 6.65 µM
CC50 (COLO 205): > 100 µM
TGI (SK-MEL-2): >100 µM
GI50 (SK-MEL-2): 6.64 µM
CC50 (SK-MEL-2): > 100 µM
TGI (LOX IMVI): >100 µM
GI50 (LOX IMVI): > 100 µM
CC50 (LOX IMVI): > 100 µM
TGI (A498): >100 µM
GI50 (A498): > 100 µM
CC50 (A498): > 100 µM
TGI (RXF 393): >100 µM
GI50 (RXF 393): 6.25 µM
CC50 (RXF 393): > 100 µM
TGI (TK-10): >100 µM
GI50 (TK-10): > 100 µM
CC50 (TK-10): > 100 µM
TGI (MDA-MB-231/ATCC): >100 µM
GI50 (MDA-MB-231/ATCC): > 100 µM
CC50 (MDA-MB-231/ATCC): > 100 µM
TGI (BT-549 [9]): >100 µM
GI50 (BT-549 [9]): > 100 µM
CC50 (BT-549 [9]): > 100 µM
TGI (T-47D [10]): >100 µM
GI50 (T-47D [10]): 2.41 µM
CC50 (T-47D [10]): > 100 µM

N#Cc1ccc(C2C=C(Nc3ccc(I)cc3)C(=O)N2c2ccc(I)cc2)cc1 (stereo not shown) [3l]
inhibition at 10 µM (EKVX): 100%
inhibition at 10 µM (NCI-H226): 100%
GI (%) (NCI-H226): 100 ^i1%
inhibition at 10 µM (A549/ATCC): 31%
inhibition at 10 µM (ACHN): 100%
inhibition at 10 µM (HCT-116 [3]): 48%
inhibition at 10 µM (HS 578T): 100%
inhibition at 10 µM (MCF7): 52%
inhibition at 10 µM (MDA-MB-435): 19%
inhibition at 10 µM (MOLT-4 [4]): 78%
inhibition at 10 µM (NCI/ADR-RES): 37%
inhibition at 10 µM (OVCAR-5): 11%
inhibition at 10 µM (SK-MEL-28): 29%
inhibition at 10 µM (SN12C): 59%
inhibition at 10 µM (SNB-19): 35%
inhibition at 10 µM (T-47D [5]): 59%
inhibition at 10 µM (UACC-62): 17%
GI50 (CCRF-CEM): 3.26 µM
CC50 (CCRF-CEM): > 100 µM
TGI (MOLT-4 [6]): >100 µM
GI50 (MOLT-4 [6]): 2.11 µM
CC50 (MOLT-4 [6]): > 100 µM
TGI (RPMI-8226): >100 µM
GI50 (RPMI-8226): 3.07 µM
CC50 (RPMI-8226): > 100 µM
TGI (HOP-62 [7]): >100 µM
GI50 (HOP-62 [7]): 5.21 µM
CC50 (HOP-62 [7]): > 100 µM
TGI (KM12): >100 µM
GI50 (KM12): 9.7 µM
CC50 (KM12): > 100 µM
TGI (HCT-116 [8]): >100 µM
GI50 (HCT-116 [8]): 3.83 µM
CC50 (HCT-116 [8]): > 100 µM
TGI (COLO 205): >100 µM
GI50 (COLO 205): 5.29 µM
CC50 (COLO 205): > 100 µM
TGI (SK-MEL-2): >100 µM
GI50 (SK-MEL-2): 3.7 µM
CC50 (SK-MEL-2): > 100 µM
TGI (LOX IMVI): >100 µM
GI50 (LOX IMVI): 3.38 µM
CC50 (LOX IMVI): > 100 µM
TGI (A498): >100 µM
GI50 (A498): 2.99 µM
CC50 (A498): > 100 µM
TGI (RXF 393): >100 µM
GI50 (RXF 393): 3.72 µM
CC50 (RXF 393): > 100 µM
TGI (TK-10): >100 µM
GI50 (TK-10): 3.85 µM
CC50 (TK-10): > 100 µM
TGI (MDA-MB-231/ATCC): 9.63 µM
GI50 (MDA-MB-231/ATCC): 2.5 µM
CC50 (MDA-MB-231/ATCC): > 100 µM
TGI (BT-549 [9]): >100 µM
GI50 (BT-549 [9]): 5.81 µM
CC50 (BT-549 [9]): > 100 µM
TGI (T-47D [10]): >100 µM
GI50 (T-47D [10]): 7.13 µM
CC50 (T-47D [10]): > 100 µM

— PMC12736255, “Reinvestigating Pyrrol-2-One-Based Compounds: From Antimicrobial Agents to Promising Antitumor Candidates” (Pharmaceuticals, 2025)
